Source: ChEMBL document CHEMBL1687815, “In vivo selection of a missense mutation in adeR and conversion of the novel blaOXA-164 gene into blaOXA-58 in carbapenem-resistant Acinetobacter baumannii isolates from a hospitalized patient” (2010)
≈ marks a conversion by molar mass, not a printed value.

Key:
Acinetobacter baumannii [1] = assay: Antimicrobial activity against Acinetobacter baumannii isolate I expressing beta-lactamase OXA-58 isolated from tracheal secretion of patient by vitek 2 system
Acinetobacter baumannii [2] = assay: Antimicrobial activity against Acinetobacter baumannii ATCC 17978 harboring beta-lactamase OXA-58 by Etest; type: functional
Acinetobacter baumannii [3] = assay: Antimicrobial activity against Acinetobacter baumannii ATCC 17978 harboring plasmid WH1266 by Etest; type: functional
Acinetobacter baumannii [4] = assay: Antimicrobial activity against Acinetobacter baumannii isolate A expressing beta-lactamase OXA-164 isolated from tracheal secretion of patient by vitek 2 system
Acinetobacter baumannii [5] = assay: Antimicrobial activity against Acinetobacter baumannii isolate B expressing beta-lactamase OXA-164 isolated from tracheal secretion of patient by vitek 2 system
Acinetobacter baumannii [6] = assay: Antimicrobial activity against Acinetobacter baumannii isolate J expressing beta-lactamase OXA-58 isolated from bedsore by vitek 2 system
Acinetobacter baumannii [7] = assay: Antimicrobial activity against Acinetobacter baumannii isolate L expressing beta-lactamase OXA-58 isolated from tracheal secretion of patient by Etest
Acinetobacter baumannii [8] = assay: Antimicrobial activity against Acinetobacter baumannii isolate F expressing beta-lactamase OXA-164 isolated from tracheostoma of patient by vitek 2 system
Acinetobacter baumannii [9] = assay: Antimicrobial activity against Acinetobacter baumannii isolate A expressing beta-lactamase OXA-164 isolated from tracheal secretion of patient by Etest
Acinetobacter baumannii [10] = assay: Antimicrobial activity against Acinetobacter baumannii isolate D expressing beta-lactamase OXA-164 isolated from tracheal secretion of patient by Etest
Acinetobacter baumannii [11] = assay: Antimicrobial activity against Acinetobacter baumannii isolate M expressing beta-lactamase OXA-58 isolated from tracheal secretion of patient by Etest
Acinetobacter baumannii [12] = assay: Antimicrobial activity against Acinetobacter baumannii isolate I expressing beta-lactamase OXA-58 isolated from tracheal secretion of patient by Etest
Acinetobacter baumannii [13] = assay: Antimicrobial activity against Acinetobacter baumannii isolate F expressing beta-lactamase OXA-164 isolated from tracheostoma of patient by Etest
Acinetobacter baumannii [14] = assay: Antimicrobial activity against Acinetobacter baumannii isolate G expressing beta-lactamase OXA-58 isolated from tracheal secretion of patient by vitek 2 system
Acinetobacter baumannii [15] = assay: Antimicrobial activity against Acinetobacter baumannii isolate E expressing beta-lactamase OXA-164 isolated from tracheal secretion of patient by vitek 2 system
Acinetobacter baumannii [16] = assay: Antimicrobial activity against Acinetobacter baumannii ATCC 19606 harboring beta-lactamase OXA-164 by Etest; type: functional; details: ATCC 19606 = CIP 70.34 = JCM 6841
Acinetobacter baumannii [17] = assay: Antimicrobial activity against Acinetobacter baumannii isolate G expressing beta-lactamase OXA-58 isolated from tracheal secretion of patient by Etest
Acinetobacter baumannii [18] = assay: Antimicrobial activity against Acinetobacter baumannii ATCC 17978 harboring beta-lactamase OXA-164 by Etest; type: functional
Acinetobacter baumannii [19] = assay: Antimicrobial activity against Acinetobacter baumannii isolate J expressing beta-lactamase OXA-58 isolated from bedsore by Etest
Acinetobacter baumannii [20] = assay: Antimicrobial activity against Acinetobacter baumannii isolate H expressing beta-lactamase OXA-58 isolated from tracheal secretion of patient by vitek 2 system
Acinetobacter baumannii [21] = assay: Antimicrobial activity against Acinetobacter baumannii ATCC 19606 harboring beta-lactamase OXA-58 by Etest; type: functional; details: ATCC 19606 = CIP 70.34 = JCM 6841
Escherichia coli [22] = assay: Antimicrobial activity against Escherichia coli NEB 5-alpha harboring beta-lactamase OXA-58 by Etest; type: functional
Acinetobacter baumannii [23] = assay: Antimicrobial activity against Acinetobacter baumannii by vitek 2 system
Acinetobacter baumannii [24] = assay: Antimicrobial activity against Acinetobacter baumannii ATCC 19606 harboring plasmid WH1266 by Etest; type: functional; details: ATCC 19606 = CIP 70.34 = JCM 6841
Escherichia coli [25] = assay: Antimicrobial activity against Escherichia coli NEB 5-alpha harboring plasmid WH1266 by Etest; type: functional
Acinetobacter baumannii [26] = assay: Antimicrobial activity against Acinetobacter baumannii isolate H expressing beta-lactamase OXA-58 isolated from tracheal secretion of patient by Etest
Acinetobacter baumannii [27] = assay: Antimicrobial activity against Acinetobacter baumannii isolate K expressing beta-lactamase OXA-58 isolated from blood culture of patient by Etest
Acinetobacter baumannii [28] = assay: Antimicrobial activity against Acinetobacter baumannii isolate D expressing beta-lactamase OXA-164 isolated from tracheal secretion of patient by vitek 2 system
Acinetobacter baumannii [29] = assay: Antimicrobial activity against Acinetobacter baumannii isolate C expressing beta-lactamase OXA-164 isolated from tracheal secretion of patient by Etest
Acinetobacter baumannii [30] = assay: Antimicrobial activity against Acinetobacter baumannii isolate M expressing beta-lactamase OXA-58 isolated from tracheal secretion of patient by vitek 2 system
Acinetobacter baumannii [31] = assay: Antimicrobial activity against Acinetobacter baumannii isolate B expressing beta-lactamase OXA-164 isolated from tracheal secretion of patient by Etest
Escherichia coli [32] = assay: Antimicrobial activity against Escherichia coli NEB 5-alpha harboring beta-lactamase OXA-164 by Etest; type: functional
Acinetobacter baumannii [33] = assay: Antimicrobial activity against Acinetobacter baumannii isolate K expressing beta-lactamase OXA-58 isolated from blood culture of patient by vitek 2 system
Acinetobacter baumannii [34] = assay: Antimicrobial activity against Acinetobacter baumannii isolate E expressing beta-lactamase OXA-164 isolated from tracheal secretion of patient by Etest
Acinetobacter baumannii [35] = assay: Antimicrobial activity against Acinetobacter baumannii isolate C expressing beta-lactamase OXA-164 isolated from tracheal secretion of patient by vitek 2 system
Acinetobacter baumannii [36] = assay: Antimicrobial activity against Acinetobacter baumannii isolate L expressing beta-lactamase OXA-58 isolated from tracheal secretion of patient by vitek 2 system

## C[C@@H](O)[C@H]1C(=O)N2C(C(=O)O)=C(SCCNC=N)C[C@H]12 [IMIPENEM ANHYDROUS]
Acinetobacter baumannii [1]
  MIC: ≥ 16 mg/L
Acinetobacter baumannii [2]
  MIC: > 32 mg/L
Acinetobacter baumannii [3]
  MIC: 0.25 mg/L (≈ 0.835 µM)
Acinetobacter baumannii [4]
  MIC: 8 mg/L (≈ 26.7 µM)
Acinetobacter baumannii [5]
  MIC: ≥ 16 mg/L
Acinetobacter baumannii [6]
  MIC: ≥ 16 mg/L
Acinetobacter baumannii [7]
  MIC: ≥ 64 mg/L
Acinetobacter baumannii [8]
  MIC: ≥ 16 mg/L
Acinetobacter baumannii [9]
  MIC: 32 mg/L (≈ 107 µM)
Acinetobacter baumannii [10]
  MIC: 32 mg/L (≈ 107 µM)
Acinetobacter baumannii [11]
  MIC: ≥ 64 mg/L
Acinetobacter baumannii [12]
  MIC: ≥ 64 mg/L
Acinetobacter baumannii [13]
  MIC: 32 mg/L (≈ 107 µM)
Acinetobacter baumannii [14]
  MIC: ≥ 16 mg/L
Acinetobacter baumannii [15]
  MIC: ≥ 16 mg/L
Acinetobacter baumannii [16]
  MIC: > 32 mg/L
Acinetobacter baumannii [17]
  MIC: ≥ 64 mg/L
Acinetobacter baumannii [18]
  MIC: > 32 mg/L
Acinetobacter baumannii [19]
  MIC: ≥ 64 mg/L
Acinetobacter baumannii [20]
  MIC: ≥ 16 mg/L
Acinetobacter baumannii [21]
  MIC: > 32 mg/L
Escherichia coli [22]
  MIC: 0.5 mg/L (≈ 1.67 µM)
Acinetobacter baumannii [23]
  MIC: 8 mg/L (≈ 26.7 µM)
Acinetobacter baumannii [24]
  MIC: 0.125 mg/L (≈ 0.418 µM)
Escherichia coli [25]
  MIC: 0.19 mg/L (≈ 0.635 µM)
Acinetobacter baumannii [26]
  MIC: ≥ 64 mg/L
Acinetobacter baumannii [27]
  MIC: ≥ 64 mg/L
Acinetobacter baumannii [28]
  MIC: ≥ 16 mg/L
Acinetobacter baumannii [29]
  MIC: 32 mg/L (≈ 107 µM)
Acinetobacter baumannii [30]
  MIC: ≥ 16 mg/L
Acinetobacter baumannii [31]
  MIC: 32 mg/L (≈ 107 µM)
Escherichia coli [32]
  MIC: 0.25 mg/L (≈ 0.835 µM)
Acinetobacter baumannii [33]
  MIC: ≥ 16 mg/L
Acinetobacter baumannii [34]
  MIC: 32 mg/L (≈ 107 µM)
Acinetobacter baumannii [35]
  MIC: ≥ 16 mg/L
Acinetobacter baumannii [36]
  MIC: ≥ 16 mg/L
